The values below come from ChEMBL document CHEMBL1155012, “Modulation of peripheral serotonin levels by novel tryptophan hydroxylase inhibitors for the potential treatment of functional gastrointestinal disorders” (J Med Chem, 2008).

The target in the assay is Tryptophan 5-hydroxylase 1 (Homo sapiens) (UniProt P17752). The assay is described as follows: Inhibition of TPH1 in human BON cells assessed as inhibition of serotonin biosynthesis.
Chain of Tryptophan 5-hydroxylase 1 (Homo sapiens) (P17752 whole entry, looked up): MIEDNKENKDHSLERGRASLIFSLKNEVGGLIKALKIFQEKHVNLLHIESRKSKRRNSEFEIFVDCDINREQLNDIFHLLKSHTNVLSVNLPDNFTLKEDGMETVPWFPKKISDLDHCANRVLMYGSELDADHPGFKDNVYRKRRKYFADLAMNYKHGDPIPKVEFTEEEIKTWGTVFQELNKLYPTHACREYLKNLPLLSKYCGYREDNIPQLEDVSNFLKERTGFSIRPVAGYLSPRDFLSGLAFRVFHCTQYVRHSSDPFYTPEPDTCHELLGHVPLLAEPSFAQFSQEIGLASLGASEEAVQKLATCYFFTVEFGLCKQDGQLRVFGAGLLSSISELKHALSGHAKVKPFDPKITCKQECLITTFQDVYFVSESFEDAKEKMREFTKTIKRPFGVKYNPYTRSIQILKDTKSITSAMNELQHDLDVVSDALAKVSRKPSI
Usually EC50 stands for the concentration that produces a half-maximal response. As for `Cc1cccc(-c2ccccc2C(Oc2cc(-c3ccc(C[C@H](N)C(=O)O)cc3)nc(N)n2)C(F)(F)F)c1` (some centres undefined), the EC50 came to 560 nM.

Consider `Nc1nc(OC(c2ccccc2-c2ccco2)C(F)(F)F)cc(-c2ccc(C[C@H](N)C(=O)O)cc2)n1` (some centres undefined), for which the EC50 amounted to 800 nM.

Turning to `Nc1nc(OC(c2ccccc2-n2ccc(C(F)(F)F)n2)C(F)(F)F)cc(-c2ccc(C[C@H](N)C(=O)O)cc2)n1` (some centres undefined), the EC50 was 750 nM.

Regarding `Nc1nc(OC(c2sccc2-c2ccco2)C(F)(F)F)cc(-c2ccc(C[C@H](N)C(=O)O)cc2)n1` (some centres undefined), the half-maximal effective concentration (EC50) was determined as 1190 nM.
